The IC50 is the midpoint of a concentration-inhibition curve. For orientation: AC50 means the midpoint of the concentration-response curve, whichever way the signal moves.

Consider twelve compounds from ChEMBL document CHEMBL1201862, “PubChem BioAssay data set” (2004).

The structures appear in SMILES notation. Calls of active or inactive are those of the source.

For assay [1], the target named is Mitogen-activated protein kinase 10 (Homo sapiens, UniProt P53779). Description: Dose response biochemical screening assay for inhibitors of c-Jun N-Terminal Kinase 3 (JNK3). [Related pubchem assays: 746 ].
Another assay addresses Phospholipase D1 (Homo sapiens, UniProt Q13393). Briefly: PLD1 Cellular Concentration Response Study. The format is functional.
The target in the next assay is Phospholipase D2 (Homo sapiens, UniProt O14939). Description: PLD2 Cellular Concentration Response Study. It is filed as functional.
The target in the next assay is Paired box protein Pax-8 (Homo sapiens, UniProt Q06710). Briefly: PAX8 transcriptional activity inhibition in RMG-I – RMG-I cells, luciferase, cherry-pick, dose response (AID 687027).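 Further: luciferase reporter driven by Pax8 target thyroperoxidase promoter measured by SteadyGlo luminescence.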 It is filed as functional, cell-based.
Assay [2] in a line: DRD fibroblast viability loss – cell-based, non-viral oncogenic, luminescence, dose response (AID 1934). Conditions: Homo sapiens. It is filed as functional.
Assay [3] in a line: Luminescence-based dose response cell-based high throughput screening assay for cytotoxic compounds using the IEC-6 intestinal epithelial cell line. [Related pubchem assays: 1858 (Summary AID.), 1825 (Counterscreen.), 1907 (Confirmation screen.)]. The format is functional. On the technique in general: The purpose of a counterscreen is to sort out artefacts and off-target activity.

A short description of assay [4]: HEK-293T viability loss after treatment – luminescence, T-cell screen hits, cytotoxicity control for TCR NF-kB inhibitor project, dose response (AID 489026).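 Further: cells exposed to compound about 14 hours before the viability readout.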 It is filed as functional, cell-based.
Assay [5] concerns BJ. Briefly: growth inhibition of engineered Ras-driven BJ cells – cell-based, alamar blue fluorescence, cherrypicked samples, dose response (AID 2631).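 Further: confirmatory dose-response assay in RAS-dependent BJ fibroblasts engineered with TERT, LT and ST, with cytotoxicity read by fluorescence.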 The format is functional. Conditions: Homo sapiens. In general terms: Resazurin is reduced to fluorescent resorufin, in cell work by metabolically active cells.
For assay [6], the system named is BJ. Briefly: BJ-TERT fibroblast viability loss – cell-based, RAS-independent, luminescence, dose response (AID 1933). The conditions noted are these: Homo sapiens. The format is functional.
The test system of assay [7] is BJ. Description: cells. It is filed as functional, cell-based. The conditions noted are these: Homo sapiens.
Assay [8] is described as follows: Luminescence-based cell-based high throughput dose response assay to identify activators of the DAF-12 from the parasite S. stercoralis (ssDAF-12). It is filed as functional.
The target in assay [9] is T1, Oxysterols receptor LXR-beta (Homo sapiens, UniProt P55055).
T1 sequence (P55055 whole entry): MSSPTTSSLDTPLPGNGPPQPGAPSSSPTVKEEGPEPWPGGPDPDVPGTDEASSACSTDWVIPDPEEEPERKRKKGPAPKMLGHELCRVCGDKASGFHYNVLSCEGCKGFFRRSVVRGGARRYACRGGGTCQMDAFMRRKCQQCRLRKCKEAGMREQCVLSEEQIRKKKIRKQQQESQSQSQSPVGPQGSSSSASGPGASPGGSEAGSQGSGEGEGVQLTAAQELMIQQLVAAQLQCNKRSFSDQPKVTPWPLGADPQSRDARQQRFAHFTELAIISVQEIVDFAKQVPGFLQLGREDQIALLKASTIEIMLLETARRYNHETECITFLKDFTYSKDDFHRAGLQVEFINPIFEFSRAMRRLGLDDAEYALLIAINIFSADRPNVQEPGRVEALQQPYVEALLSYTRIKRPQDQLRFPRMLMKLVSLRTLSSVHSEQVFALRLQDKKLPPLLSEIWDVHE
Description: LXR agonists, Gal4 luciferase reporter, dose response, counter-screen for ssDAF-12 agonist project, cell-based, luminescence, HEK293, S. stercoralis campaign (AID 720737). It is filed as functional. The conditions noted are these: read-out: IC50 (the source's name). In general terms: A reporter such as luciferase makes a cellular process visible.

The nature of assay [10]: Dd2 parasite growth inhibition in erythrocytes – SYBR Green, dry powder samples, set 9, dose response (AID 1159568). It is filed as functional, cell-based.
Assay [11] addresses E3 ubiquitin-protein ligase Mdm2 (Homo sapiens, UniProt Q00987). Description: MDM2-luc reporter signal enhancers, multi-concentration potency testing, MDM2 ubiquitin-protein ligase inhibitor program, whole-cell format, luminescence detection, 384-well microplate (AID 1394).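 Further: MDM2 E3 inhibitors raise luminescence so EC50 is for signal enhancement.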 The format is functional.
Assay [12] has as its target Luciferin 4-monooxygenase (Photinus pyralis, UniProt P08659). Description: inhibition of purified Photinus pyralis luciferase – biochemical, luminescence, dose response (AID 1891).
Assay [13] in a line: Luminescence Cell-Based Dose Confirmation HTS to Identify Inhibitors of Platelet Dense Granule Release. [Related pubchem assays: 1663 (Primary HTS), 1678 (Summary of Project)]. The format is functional.
Assay [14] has as its target Sphingosine 1-phosphate receptor 2 (Homo sapiens, UniProt O95136). Description: Dose Response Cell Based Assay for Antagonists of the S1P2 Receptor. [Related pubchem assays: 856, 736 ]. The format is functional.
Assay [15] in a line: Potency on glucagon-like peptide 1 release, dose-response in NCI-H716 cell line, half maximal inhibitory concentration (AID 1117344). It is filed as functional, cell-based.
Assay [16] is described as follows: glucagon-like peptide-1 release potency in STC-1, concentration-response, half-maximal inhibitory concentration in the STC-1 line (AID 1117345). The format is functional, cell-based.
Assay [17] can be described thus: Luminescence Cell-Based Dose Retest to Confirm Inhibitors of Cancer Stem Cells. [Related pubchem assays (depositor defined):AID2717, AID2721]. The conditions noted are these: Homo sapiens. It is filed as functional, Homo sapiens.
Assay [18] is described as follows: IC50 of insulin release inhibition, rat insulinoma INS-1E line, 5 mM glucose, cell-based (AID 1117331). The format is functional.
Assay [19] addresses Aryl hydrocarbon receptor (Homo sapiens, UniProt P35869). Briefly: Luminescence-based cell-based high throughput dose response assay for activators of the Aryl Hydrocarbon Receptor (AHR). [Related pubchem assays: 2796 (Primary screen (AHR activators in singlicate)), 2845 (Confirmation screen (AHR activators in triplicate)), 434939 (Counterscreen (PXR activators in triplicate)), 2804 (Summary (AHR activators))]. The format is ADME.

The nature of assay [20]: Dd2 malaria parasite growth inhibition potency – SYBR Green, dry powder samples, dose response (AID 1159566).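 Further: potency for growth inhibition with lower SYBR green DNA signal.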 It is filed as functional, cell-based.
The nature of assay [21]: growth inhibition of yeast DHODH-expressing 3D7 parasites – SYBR Green, dry powder samples, dose response (AID 1159570).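 Further: parasite growth measured after 72 hours of compound exposure.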 The format is functional, cell-based.
Assay [22] can be described thus: antimalarial activity against Dd2 parasites – SYBR Green fluorescence, erythrocytes, dry powder, set 2, dose response (AID 1159574). It is filed as functional, cell-based.
Assay [23] in a line: P. falciparum Dd2 growth inhibitors, dose response, SYBR Green, cherry-picked samples (AID 1159567). It is filed as functional, cell-based.
Assay [24] can be described thus: growth inhibition of PfATP4-mutant resistant parasites – NITD609-resistant line, SYBR Green, dry powder, dose response (AID 1159571).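 Further: parasites synchronized at ring stage by sorbitol before testing.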 The format is functional, cell-based.
A short description of assay [25]: Luminescence Cell-Based Dose Confirmation to Identify Activators of 5'UTR Stem-Loop Driven Alpha-Synuclein mRNA Translation in H4 Neuroglioblastoma Cells. [Related pubchem assays: 1829 (Project Summary), 1814 (Primary HTS)]. The format is functional.
A short description of assay [26]: Luminescence Cell-Based Dose Response HTS to Identify Activators of Luciferase Translation or Activity in H4 […] Cells. [Related pubchem assays: 1829 (Project Summary), 1814 (Primary HTS)]. The format is functional.
Assay [27] in a line: Luminescence Cell-Based Dose Response to Identify Activators of Luciferase Translation or Activity in H4-C Neuroglioblastoma Cells. [Related pubchem assays: 1829 (Project Summary), 1814 (Primary HTS)]. The format is functional.
A short description of assay [28]: Luminescence Cell-Based Dose Confirmation HTS to Identify Activators of 5'UTR Stem-Loop Driven Alpha-Synuclein mRNA Translation in H4 Neuroglioblastoma Cells. [Related pubchem assays: 1829 (Project Summary), 1814 (Primary HTS)]. The format is functional.
The nature of assay [29]: Luminescence Cell-Based Dose Response to Identify Activators of 5'UTR Stem-Loop Driven Prion Protein mRNA Translation in H4-C Neuroglioblastoma Cells. [Related pubchem assays: 1829 (Project Summary), 1814 (Primary HTS)]. The format is functional.
A further assay deals with H4. Briefly: Luminescence Cell-Based Dose Response HTS to Identify Activators of 5'UTR Stem-Loop Driven Prion Protein mRNA Translation in H4 Neuroglioblastoma Cells. [Related pubchem assays: 1829 (Project Summary), 1814 (Primary HTS)]. The conditions noted are these: Homo sapiens. It is filed as functional.
Assay [30] deals with T2, Bcl-2-related protein A1 (Mus musculus, UniProt Q07440).
T2 sequence (Q07440 whole entry): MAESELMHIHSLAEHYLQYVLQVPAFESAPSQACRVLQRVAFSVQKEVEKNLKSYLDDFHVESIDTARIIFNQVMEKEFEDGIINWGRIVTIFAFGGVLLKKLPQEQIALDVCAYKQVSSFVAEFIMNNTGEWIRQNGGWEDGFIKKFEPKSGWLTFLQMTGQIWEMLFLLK
Briefly: Bfl-1 binding inhibitors, SAR follow-up, biochemical, fluorescence polarization (AID 1070).

The target of assay [31] is T2, Bcl-2-related protein A1. Description: small-molecule antagonists of Bfl-1/BH3 interaction – biochemical, TR-FRET, mouse Bfl-1, confirmation (AID 621).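 Further: TR-FRET binding of GST-Bfl-1 to FITC-labelled Bid peptide via terbium antibody.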
Assay [32] concerns the target Glyceraldehyde-3-phosphate dehydrogenase (Homo sapiens, UniProt P04406).

Mitogen-activated protein kinase 10, sequence (P53779 whole entry): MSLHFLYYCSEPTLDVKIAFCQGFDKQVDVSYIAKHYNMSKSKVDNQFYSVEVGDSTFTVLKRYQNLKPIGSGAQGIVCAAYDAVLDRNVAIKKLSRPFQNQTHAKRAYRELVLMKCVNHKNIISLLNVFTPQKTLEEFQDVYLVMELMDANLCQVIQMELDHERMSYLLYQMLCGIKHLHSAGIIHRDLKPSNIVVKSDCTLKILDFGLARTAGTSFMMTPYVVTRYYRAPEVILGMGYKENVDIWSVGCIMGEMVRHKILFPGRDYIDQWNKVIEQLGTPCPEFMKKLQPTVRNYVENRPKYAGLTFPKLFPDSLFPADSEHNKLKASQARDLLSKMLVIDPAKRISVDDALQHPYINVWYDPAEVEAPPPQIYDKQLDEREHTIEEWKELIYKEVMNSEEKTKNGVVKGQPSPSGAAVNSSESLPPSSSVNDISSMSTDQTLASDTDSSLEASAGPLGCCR
Phospholipase D2, sequence (O14939 whole entry): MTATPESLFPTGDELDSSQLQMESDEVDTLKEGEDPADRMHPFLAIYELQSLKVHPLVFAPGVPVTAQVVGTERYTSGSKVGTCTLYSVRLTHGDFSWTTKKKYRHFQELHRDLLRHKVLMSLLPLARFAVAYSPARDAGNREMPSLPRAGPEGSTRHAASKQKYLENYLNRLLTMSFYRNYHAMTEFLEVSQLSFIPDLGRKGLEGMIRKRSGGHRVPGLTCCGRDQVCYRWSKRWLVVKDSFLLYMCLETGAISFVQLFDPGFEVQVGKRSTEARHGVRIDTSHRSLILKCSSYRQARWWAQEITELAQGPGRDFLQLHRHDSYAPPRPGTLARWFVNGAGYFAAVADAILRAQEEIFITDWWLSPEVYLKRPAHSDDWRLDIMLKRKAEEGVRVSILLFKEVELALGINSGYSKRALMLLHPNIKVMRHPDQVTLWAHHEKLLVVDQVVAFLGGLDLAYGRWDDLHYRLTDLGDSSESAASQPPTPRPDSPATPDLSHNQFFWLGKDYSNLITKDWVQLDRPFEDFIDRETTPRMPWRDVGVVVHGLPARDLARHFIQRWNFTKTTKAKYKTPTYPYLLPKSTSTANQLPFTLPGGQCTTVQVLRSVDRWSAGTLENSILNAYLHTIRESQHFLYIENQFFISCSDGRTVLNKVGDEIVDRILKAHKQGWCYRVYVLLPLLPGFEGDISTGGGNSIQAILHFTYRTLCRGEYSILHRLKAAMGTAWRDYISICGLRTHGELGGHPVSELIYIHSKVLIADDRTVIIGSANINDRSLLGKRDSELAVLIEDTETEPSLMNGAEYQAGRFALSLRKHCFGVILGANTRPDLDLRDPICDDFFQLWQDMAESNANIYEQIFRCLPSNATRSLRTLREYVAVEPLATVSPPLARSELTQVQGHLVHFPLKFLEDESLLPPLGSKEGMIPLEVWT
Glyceraldehyde-3-phosphate dehydrogenase, sequence (P04406 whole entry): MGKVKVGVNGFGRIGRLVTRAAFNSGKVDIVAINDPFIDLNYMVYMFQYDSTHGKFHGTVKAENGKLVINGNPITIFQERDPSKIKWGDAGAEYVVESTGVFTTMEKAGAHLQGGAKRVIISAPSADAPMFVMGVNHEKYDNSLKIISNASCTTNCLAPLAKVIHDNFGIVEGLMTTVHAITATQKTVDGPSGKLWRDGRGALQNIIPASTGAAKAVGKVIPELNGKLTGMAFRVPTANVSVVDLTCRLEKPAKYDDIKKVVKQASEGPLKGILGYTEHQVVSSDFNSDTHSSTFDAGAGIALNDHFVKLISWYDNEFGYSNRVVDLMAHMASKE
Paired box protein Pax-8, sequence (Q06710 whole entry): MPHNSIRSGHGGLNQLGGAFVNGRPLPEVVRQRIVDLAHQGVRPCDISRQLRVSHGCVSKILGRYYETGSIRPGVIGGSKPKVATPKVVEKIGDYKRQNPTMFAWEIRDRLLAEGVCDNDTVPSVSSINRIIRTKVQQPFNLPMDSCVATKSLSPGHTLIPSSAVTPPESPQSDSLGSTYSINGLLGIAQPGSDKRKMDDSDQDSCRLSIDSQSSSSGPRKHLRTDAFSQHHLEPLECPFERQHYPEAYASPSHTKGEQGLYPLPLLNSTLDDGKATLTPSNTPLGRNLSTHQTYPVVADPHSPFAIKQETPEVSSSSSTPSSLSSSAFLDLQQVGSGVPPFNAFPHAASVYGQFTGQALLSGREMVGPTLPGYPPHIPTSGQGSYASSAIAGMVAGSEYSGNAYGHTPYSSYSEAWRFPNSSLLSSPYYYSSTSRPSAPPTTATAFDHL
Luciferin 4-monooxygenase, sequence (P08659 whole entry): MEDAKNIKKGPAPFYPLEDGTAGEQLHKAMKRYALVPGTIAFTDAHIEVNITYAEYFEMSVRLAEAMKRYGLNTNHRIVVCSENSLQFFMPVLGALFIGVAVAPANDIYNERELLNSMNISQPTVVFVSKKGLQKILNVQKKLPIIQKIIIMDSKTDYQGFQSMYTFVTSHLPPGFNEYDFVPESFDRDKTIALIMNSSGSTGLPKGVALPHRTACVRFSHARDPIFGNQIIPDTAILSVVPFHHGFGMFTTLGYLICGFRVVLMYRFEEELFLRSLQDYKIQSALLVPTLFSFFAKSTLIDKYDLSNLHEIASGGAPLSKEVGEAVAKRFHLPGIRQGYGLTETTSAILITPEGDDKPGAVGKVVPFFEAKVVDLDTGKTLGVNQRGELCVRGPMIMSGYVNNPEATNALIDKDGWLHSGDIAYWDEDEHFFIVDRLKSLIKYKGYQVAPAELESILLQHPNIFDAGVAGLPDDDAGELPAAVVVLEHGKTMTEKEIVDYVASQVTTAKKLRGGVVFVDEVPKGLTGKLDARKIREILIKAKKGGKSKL
E3 ubiquitin-protein ligase Mdm2, sequence (Q00987 whole entry): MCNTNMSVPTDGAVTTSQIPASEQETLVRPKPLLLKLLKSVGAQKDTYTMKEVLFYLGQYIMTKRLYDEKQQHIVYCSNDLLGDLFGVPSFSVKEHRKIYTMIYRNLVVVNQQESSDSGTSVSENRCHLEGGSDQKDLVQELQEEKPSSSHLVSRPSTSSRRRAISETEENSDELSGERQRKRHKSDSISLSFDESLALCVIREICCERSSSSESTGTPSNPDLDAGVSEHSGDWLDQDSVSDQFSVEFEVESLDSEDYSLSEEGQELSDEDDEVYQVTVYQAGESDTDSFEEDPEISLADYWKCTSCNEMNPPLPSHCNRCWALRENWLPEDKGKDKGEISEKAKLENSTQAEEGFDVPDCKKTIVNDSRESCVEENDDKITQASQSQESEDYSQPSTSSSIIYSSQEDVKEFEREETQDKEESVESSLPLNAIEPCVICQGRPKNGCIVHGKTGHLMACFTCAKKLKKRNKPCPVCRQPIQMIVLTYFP
Aryl hydrocarbon receptor, sequence (P35869 whole entry): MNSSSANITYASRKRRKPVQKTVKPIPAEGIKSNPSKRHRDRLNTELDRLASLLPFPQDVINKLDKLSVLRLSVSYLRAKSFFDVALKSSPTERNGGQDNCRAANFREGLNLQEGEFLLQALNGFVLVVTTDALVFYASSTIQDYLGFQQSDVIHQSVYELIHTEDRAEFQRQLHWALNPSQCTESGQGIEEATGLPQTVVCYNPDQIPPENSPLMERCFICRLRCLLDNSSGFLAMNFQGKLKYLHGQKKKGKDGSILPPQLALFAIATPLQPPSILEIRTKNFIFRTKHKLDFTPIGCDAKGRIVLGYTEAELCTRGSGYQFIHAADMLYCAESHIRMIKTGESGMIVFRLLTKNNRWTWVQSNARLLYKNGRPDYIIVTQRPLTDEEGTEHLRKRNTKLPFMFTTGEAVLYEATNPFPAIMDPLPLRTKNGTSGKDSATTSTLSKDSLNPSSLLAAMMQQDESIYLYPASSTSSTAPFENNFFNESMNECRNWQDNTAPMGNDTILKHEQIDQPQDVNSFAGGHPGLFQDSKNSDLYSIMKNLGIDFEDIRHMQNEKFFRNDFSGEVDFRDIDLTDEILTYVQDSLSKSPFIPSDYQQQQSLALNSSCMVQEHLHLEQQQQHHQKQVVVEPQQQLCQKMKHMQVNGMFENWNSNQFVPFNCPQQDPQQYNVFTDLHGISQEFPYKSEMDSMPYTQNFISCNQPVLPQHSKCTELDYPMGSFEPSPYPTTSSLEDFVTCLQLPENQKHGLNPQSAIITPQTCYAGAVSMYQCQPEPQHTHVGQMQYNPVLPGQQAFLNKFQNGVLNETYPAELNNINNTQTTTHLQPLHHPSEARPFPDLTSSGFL
Sphingosine 1-phosphate receptor 2, sequence (O95136 whole entry): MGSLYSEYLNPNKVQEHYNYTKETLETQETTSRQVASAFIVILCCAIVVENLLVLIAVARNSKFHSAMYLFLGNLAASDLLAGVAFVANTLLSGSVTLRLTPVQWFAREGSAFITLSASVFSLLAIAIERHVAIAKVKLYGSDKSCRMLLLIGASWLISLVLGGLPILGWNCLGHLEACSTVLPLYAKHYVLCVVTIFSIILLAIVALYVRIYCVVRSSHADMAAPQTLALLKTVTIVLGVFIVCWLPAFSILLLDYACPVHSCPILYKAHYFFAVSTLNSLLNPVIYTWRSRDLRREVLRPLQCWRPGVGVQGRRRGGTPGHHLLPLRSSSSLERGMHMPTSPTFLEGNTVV

As to `C/C(NC1CCCC1)=C(/C#N)C(N)=O`, in [1], the IC50 was 33.3 µM (not active).
Turning to `O=C(NCCN1CCC2(CC1)C(=O)NCN2Cc1ccccc1Br)c1ccc2ccccc2c1`, the 50% inhibitory concentration (IC50) at Phospholipase D1 was 1.68 µM (active); at Phospholipase D2 it was 0.16 µM (active).
Regarding `COc1ccc(/C=N/NC(=O)c2[nH]c3ccc(Br)cc3c2-c2ccccc2)cc1`, the concentration at half-maximal activity (AC50) at Paired box protein Pax-8 was < 0.5 µM (active). The EC50 was 0.361 µM (active) in assay [2], 0.0886 µM (active) in the assay on BJ [5], < 0.12 µM (inconclusive) with BJ [6] and 34.8 µM (inconclusive) with BJ [7]. For the same compound, the IC50 in [3] was 0.296 µM (active); in [4], > 80 µM (inactive).
Consider `CC(=O)NC1(c2ccccc2)CCN(c2cc(C)nc(-c3ccccc3)n2)CC1`, for which the IC50 in assay [8] was > 67.5 µM (inactive). Further, the EC50 in assay [9] was > 67.5 µM (inactive).
Consider `O=C(C1CCOCC1)N1C[C@@H]2[C@H](c3ccccc31)[C@H](CO)N2C(=O)Cc1ccccn1`, for which the AC50 in assay [10] is 22.9 µM (active).
On to `Cc1nnc(SCCN2CCOCC2)c2nn(-c3ccccc3F)c(C)c12`, for which the EC50 is 2.43 µM (not active) in assay [11], > 112 µM (not active) in assay [12] and > 112 µM (not active) in assay [13].
As for `O=C(Nc1ccc(F)cc1)c1cccs1`, in assay [14], the IC50 was > 30 µM (not active).
Regarding `O=C1Nc2ccc(Cl)cc2[C@@](C#CC2CC2)(C(F)(F)F)O1` [EFAVIRENZ], the figures for the IC50 in assay [15], in assay [16] and in assay [18] were 21.2 µM (inactive), 2.48 µM (active) and 3.87 µM (active), respectively. For the same compound, in assay [17], the AC50 was 6.38 µM (active).
As to `CCC(=O)Nc1cc(OC)c(NC(=O)c2ccccc2)cc1OC`, the EC50 in [19] is 1.85 µM (active).
Turning to `O=C(c1ccccc1F)N1CC(=O)N2[C@H](CO)[C@H](c3ccc(-c4cccnc4)cc3)[C@H]2C1`, the AC50 was 0.129 µM (active) in [20]; 0.197 µM (active) in assay [21]; 0.427 µM (active) in assay [22]; < 0.3 µM (active) in assay [23]; 0.148 µM (active) in assay [24].
Turning to `COc1cccc(NC(=O)C(=O)N/N=C(\C)CC(=O)Nc2ccc(NC(C)=O)cc2)c1`, the EC50 is 1.25 µM (active) in assay [25]; 9.31 µM (active) in assay [26]; > 12 µM (not active) in assay [27]; < 0.1 µM (active) in [28]; > 12 µM (not active) in assay [29]; 25.6 µM (active) with H4.
Turning to `Cc1cccc(N2CCN(C3=C(Cl)C(=O)N(c4ccc(Cl)c(Cl)c4)C3=O)CC2)c1C`, the IC50 (on Bcl-2-related protein A1 [30]; on Bcl-2-related protein A1 [31]; in assay [32]) was > 100 µM (not active) in each case.
